Assays:
PC-12 [1] = experiment: Hydrogen peroxide radical scavenging activity in PC12 cell by survival assay; assay type: functional, cell-based, Homo sapiens; settings: Rattus norvegicus
PC-12 [2] = experiment: Nitric oxide radical scavenging activity in PC12 cells by survival assay; assay type: functional, cell-based, Homo sapiens; settings: Rattus norvegicus
PC-12 [3] = experiment: Hydroxyl radical scavenging activity in PC12 cell by survival assay; assay type: functional, cell-based, Homo sapiens; settings: Rattus norvegicus
[4] = Retention time, log K of the compound; assay type: ADME
[5] = Partition coefficient, log P of the compound; assay type: physicochemical; settings: octanol/water

Row | Compound | EC50 (PC-12 [1]; read-out: EC50) [µM] | EC50 (PC-12 [1]; read-out: Log EC50 (converted)) [µM] | EC50 (PC-12 [2]; read-out: EC50) [µM] | EC50 (PC-12 [2]; read-out: Log EC50 (converted)) [µM] | EC50 (PC-12 [3]; read-out: EC50) [µM] | EC50 (PC-12 [3]; read-out: Log EC50 (converted)) [µM] | log K [4] | logP [5]
1 | CN(C)c1ccc(C2=[N+]([O-])C(C)(C)C(C)(C)N2[O])cc1 | 29 | 28.8 | 9.12 | 9.12 | 31.1 | 30.9 | 1.328 | 2.02
2 | CC1(C)N([O])C(c2ccc(Cl)cc2)=[N+]([O-])C1(C)C | 58.9 | 58.9 | 63.1 | 63.1 | 74.6 | 74.1 | 1.6 | 2.33
3 | CC1(C)N([O])C(c2ccc(Cl)cc2Cl)=[N+]([O-])C1(C)C | 65 | 64.6 | 42.8 | 42.7 | 78.1 | 77.6 | 1.347 | 1.93
4 | CC1(C)N([O])C(c2ccccc2[N+](=O)[O-])=[N+]([O-])C1(C)C | 60.7 | 60.3 | 47.9 | 47.9 | 74.6 | 74.1 | 0.598 | 0.909
5 | CC1(C)N([O])C(c2ccc(OCC(=O)O)cc2)=[N+]([O-])C1(C)C | 74.6 | 74.1 | 91.2 | 91.2 | 101 | 100 | -0.372 | -0.518
6 | CC1(C)N([O])C(c2cccnc2)=[N+]([O-])C1(C)C | – | – | – | – | – | – | 0.337 | 0.512
7 | Cc1ccc(C2=[N+]([O-])C(C)(C)C(C)(C)N2[O])cc1 | 38.3 | 38 | 33.1 | 33.1 | 65 | 64.6 | 1.309 | 1.9
8 | COc1ccc(C2=[N+]([O-])C(C)(C)C(C)(C)N2[O])cc1 | 42.9 | 42.7 | 30.9 | 30.9 | 59.3 | 58.9 | 1.101 | 1.62
9 | COc1ccc(C2=[N+]([O-])C(C)(C)C(C)(C)N2[O])c(OC)c1 | 25.3 | 25.1 | 9.33 | 9.33 | 27.7 | 27.5 | 0.62 | 0.77
10 | CC1(C)N([O])C(c2ccccc2F)=[N+]([O-])C1(C)C | 76.4 | 75.9 | 44.7 | 44.7 | 85.7 | 85.1 | 0.577 | 0.822
11 | COc1ccc(C2=[N+]([O-])C(C)(C)C(C)(C)N2[O])cc1O | 40.1 | 39.8 | 27.5 | 27.5 | 54.1 | 53.7 | 0.534 | 0.918
12 | CC1(C)N([O])C(c2ccccc2O)=[N+]([O-])C1(C)C | 52.8 | 52.5 | 44.7 | 44.7 | 55.3 | 55 | 0.729 | 1.17
13 | CC1(C)N([O])C(c2ccc(O)cc2)=[N+]([O-])C1(C)C | 48.2 | 47.9 | 39.8 | 39.8 | 56 | 56.2 | 0.483 | 0.619
14 | COc1cc(C2=[N+]([O-])C(C)(C)C(C)(C)N2[O])ccc1O | 32.6 | 32.4 | 25.7 | 25.7 | 42.9 | 42.7 | 0.558 | 1.14
15 | CC1(C)N([O])C(c2ccc([N+](=O)[O-])cc2)=[N+]([O-])C1(C)C | 108 | 107 | 115 | 115 | 167 | 166 | 1.245 | 1.68
16 | COc1ccc(C2=[N+]([O-])C(C)(C)C(C)(C)N2[O])cc1OC | 30.4 | 30.2 | 8.32 | 8.32 | 29.7 | 29.5 | 0.905 | 1.15
17 | CC1(C)N([O])C(c2ccc3c(c2)OCO3)=[N+]([O-])C1(C)C | 29.7 | 29.5 | 19.5 | 19.5 | 47.1 | 46.8 | 1.039 | 1.51
18 | CC1(C)N([O])C(c2ccc(Br)cc2)=[N+]([O-])C1(C)C | 55.3 | 55 | 46.8 | 46.8 | 60.7 | 60.3 | 1.713 | 2.46
19 | CC1(C)N([O])C(c2cccc([N+](=O)[O-])c2)=[N+]([O-])C1(C)C | 62.1 | 61.7 | 87.1 | 87.1 | 63.5 | 63.1 | 1.157 | 1.64
20 | CC1(C)N([O])C(c2cccc(O)c2)=[N+]([O-])C1(C)C | 57.9 | 57.5 | 61.7 | 61.7 | 69.6 | 69.2 | 0.546 | 1.14
21 | CC1(C)N([O])C(c2ccco2)=[N+]([O-])C1(C)C | – | – | – | – | – | – | 0.405 | 0.615
22 | CC1(C)N([O])C(c2ccccc2)=[N+]([O-])C1(C)C | 51.6 | 51.3 | 67.6 | 67.6 | 66.5 | 66.1 | 0.918 | 1.36

Source: ChEMBL document CHEMBL1147197, “Studies on logP, retention time and QSAR of 2-substituted phenylnitronyl nitroxides as free radical scavengers” (Eur J Med Chem, 2007)
